The source of these data is patent publication EP4810493A1, “HETEROCYCLIC CARBONYL DERIVATIVE MODULATOR, PREPARATION METHOD THEREFOR, AND USE THEREOF” (Shanghai Hansoh Biomedical Co., Ltd., priority 2023, dated 2025).

Structures are written as SMILES. Read-outs that look alike come from different tables or passages of the source.

Data set [1] deals with T1, M4 receptor (Homo sapiens, UniProt P08173).
T1 construct: expressed in transfected cells
T1 sequence (P08173 1-479): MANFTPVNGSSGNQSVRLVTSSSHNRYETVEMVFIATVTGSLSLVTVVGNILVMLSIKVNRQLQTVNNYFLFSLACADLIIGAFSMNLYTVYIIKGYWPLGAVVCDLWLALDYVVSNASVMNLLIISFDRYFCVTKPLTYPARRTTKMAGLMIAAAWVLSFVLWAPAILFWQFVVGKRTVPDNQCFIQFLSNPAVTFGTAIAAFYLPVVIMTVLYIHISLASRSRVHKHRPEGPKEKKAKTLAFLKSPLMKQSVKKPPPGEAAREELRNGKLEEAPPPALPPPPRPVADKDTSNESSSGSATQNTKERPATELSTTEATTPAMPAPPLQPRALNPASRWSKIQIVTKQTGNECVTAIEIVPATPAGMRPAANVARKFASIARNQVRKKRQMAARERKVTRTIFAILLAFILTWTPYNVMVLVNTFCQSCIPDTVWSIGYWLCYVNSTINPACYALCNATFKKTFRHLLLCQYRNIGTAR
As to the kind of experiment: Calcium flux (FLIPR) potentiation assay in cells stably expressing M4 receptor. In kind it is cell-based. The text has this: Test example 1. Determination of the effect of the compounds of the present invention on calcium current in cells stably expressing M1-M5 receptors
To detect the potentiating effect of compounds on calcium flux activity in CHO-K1/human M1/3/5 and CHO-K1/Gα15 M2/4 cells.
384-well assay plate, 384-well plate, FLIPR Tip, FLIPR Penta plate reader, Dispendix non-contact nanoliter dispensing system (liquid handling workstation), liquid handler.
Ham's F-12 Nutrient Mix, foetal bovine serum, P/S (Gibco: 15140122), HBSS (Gibco: 14025076), HEPES (Gibco: 15630080), FLIPR calcium 6 assay kit (Molecular Devices: R8190), Probenecid (PBA) (Invitrogen: P36400), Acetylcholine chloride (Sigma: A6625-25G) Complete culture medium: DMEM + 10% FBS + 1X P/S; Cell seeding medium: DMEM + 10% FBS + 1X PS; Assay buffer 1: 1X HBSS + 20 mM HEPES +2.5 mM Probenecid; Assay buffer 2: 1X HBSS + 20 mM HEPES; Cell line: CHO-K1/M1; CHO-K1/M2/Gα15; CHO-K1/M3; CHO-K1/M4/Gα15; CHO-K1/M5.
FLIPR calcium 6 assay kit: Component A was dissolved in Assay buffer 1, and the mixture was shaken for 1-2 min, sub-packaged and stored at -20°C.
• 1) CHO-K1/M1; CHO-K1/M2/Gα15; CHO-K1/M3; CHO-K1/M4/Gα15; and CHO-K1/M5 cell lines were cultured separately in complete culture medium at 37°C, 5% CO2 to 70%-90% confluency. • 2) The cells were digested and resuspended in cell seeding medium, 5,000 cells/well/20 µL were seeded into a 384-well cell culture plate, and the cells were cultured at 37°C, 5% CO2 for 24 hours. • 3) The cell culture plate was taken out of the CO2 incubator and equilibrated at room temperature for 10 minutes. • 4) Component A solution was removed and allowed to equilibrate to room temperature. 20 µL of Component A solution was added to each well of the cell culture plate, and incubated at room temperature in the dark for 1 hour. • 5) Acetylcholine chloride (ACh), a muscarinic receptor agonist, was prepared in Assay buffer 2 at EC20/EC100 concentrations; subsequently, 30 µL of the prepared muscarinic receptor agonist was added to a 384-well agonist plate (PE: 6008590) using a Multidrop Combi; the working solutions of the positive control compound and the test compound were serially diluted at a 3.16-fold gradient and dispensed (450 nL) into a 384-well compound plate (PE: 6008590) using the Dispendix liquid handling workstation; 30 µL of Assay buffer 2 was added to the 384-well compound plate (PE: 6008590) using the Multidrop Combi; the positive control compound and the test compound were diluted to 6X, mixed by shaking, and placed at room temperature until use. • 6) 10 µL of the diluted 6X compound was added to the assay wells of the corresponding 384-well cell plate using the FLIPR Penta, followed by a 2-minute incubation. • 7) 10 µL of the prepared muscarinic receptor agonist was added to the assay wells of the corresponding 384-well cell plate using the FLIPR Penta, with simultaneous data acquisition.
FLIPR Penta was used to read and collect the fluorescence signal value (RFU). The maximum RFU value was used to calculate the percent activation data based on the readings of the Low control (DMSO control group) and High control (ACh EC100) experimental groups {% activation rate = (RFUsample - RFUlow control) / (RFUhigh control - RFUlow control)×100}. The test compound was diluted 3.16X in the reaction system to generate 11 concentration points ranging from 30 µM to […].

The nature of data set [2]: Pharmacokinetic determination in SD rats. The conditions noted are these: rat, in vivo, po, male SD rats, p.o. 5 mg/kg; for MRT inf: read-out: MRT 0-∞. How it is done:
To investigate the pharmacokinetic behaviours of the example compounds in both plasma and brain of SD rats (test animals) following oral administration at a dose of 5 mg/kg.
2.1 Test drugs: The example compounds of the present invention, made in house.
2.2 Test animals: SD Rat, male.
24 SD Rats, male; p.o. respectively at a dose of 5 mg/kg and an administration volume of 10 mL/kg after the rats were fasted overnight.
Formulation of a drug for oral administration: 0.5% CMC-Na (1% Tween 80).
0.50 g of sodium carboxymethyl cellulose (CMC-Na, viscosity: 800-1200 Cps) was weighed and dissolved in 99 mL of purified water, and 1 ml of Tween 80 was added. The components were mixed thoroughly under stirring to form a clear solution.
The example compound was weighed into a 100 mL glass vial, 80 mL of the solution was added, and the mixture was subjected to ultrasound treatment for 10 minutes to obtain a homogeneous suspension with a concentration of 0.5 mg/mL.
After the test animals were euthanised by CO2, blood samples were collected from the heart and brain tissues were harvested at 0.25 h, 0.5 h, 1 h, 2 h, 4 h, 6 h, 8 h, and 24 h post-dose. Blood was placed in EDTA-2K tubes, and centrifuged at 6000 rpm for 6 min at 4°C to separate the plasma. Brain tissues were rinsed with pre-cold PBS, blotted dry, and weighed. Both plasma and brain samples were stored at -80°C. The animals were fed 4 h after administration.
• 3) 40 uL of plasma sample was precipitated with 160 uL of acetonitrile, mixed, and centrifuged at 3500 × g for 5-20 min. Brain tissues were diluted, homogenised and centrifuged. • 4) 100 uL of the treated supernatant solution was taken for LC/MS/MS analysis to determine the concentration of the test compounds.
• Liquid phase conditions: Shimadzu LC-20AD pump • Mass spectrometry conditions: AB Sciex API 4000 mass spectrometer • Chromatographic column: Phenomenex Gemiu 5 um C18 50 × 4.6 mm • Mobile phase: solution A: 0.1% formic acid in water, solution B: acetonitrile • Flow rate: 0.8 mL/min • Elution time: 0-4.0 min, with eluents as follows:
The main pharmacokinetic parameters were calculated using WinNonlin 8.1.

Where [3] appears, read: CHO-K1/M4/Gα15 cells, potentiation of acetylcholine (EC20) calcium flux, read-out: M4 FLIPR EC50.

The term EC50 denotes the concentration needed to bring the measured effect to its halfway point. The AUC(0-inf) is the area under the concentration-time curve extrapolated to infinity. Low values mean less exposure, high ones more exposure. In general, Cmax refers to the peak of the concentration-time curve. By Tmax is commonly meant the time at which the peak concentration occurs. Turning to `Cc1c2c(c3ccnn3c1C)CN(C(=O)CC1CN(c3ccnc(C(F)(F)F)c3)C1)C2` [Example 76, 1-(4,5-Dimethyl-2,3-dihydro-1H-pyrrolo[4,3-c]pyrazolo[1,5-a]pyridin-2-yl)-2-{1-[2-(trifluoromethyl)pyridin-4-yl]azetidin-3-yl}ethan-1-one], the EC50 in data set [1] (setting [3]) is 40.4 nM. In data set [2], the AUC(0-inf) amounted to 6150 ng·h/mL, the highest level (Cmax) was 1090 ng/mL, the Tmax came out at 2 h and the MRT inf came to 3.9 h.
Turning to `Cc1c2c(c3nccn3c1C)CN(C(=O)OC1CN(c3ccnc(C(F)F)c3)C1)C2` [Example 141], the EC50 in data set [1] (setting [3]) is 39.3 nM. Besides, in data set [2], the AUC(0-inf) was found to be 8540 ng·h/mL, the Cmax was 3210 ng/mL, the Tmax came out at 0.5 h and the MRT inf amounted to 1.7 h.
For `COc1cc(N2CC(CC(=O)N3Cc4c(C)c(C)n5ncnc5c4C3)C2)c(Cl)cn1` [Example 147], the EC50 in data set [1] (setting [3]) amounted to 40.9 nM. Besides, in data set [2], the AUC(0-inf) worked out at 3260 ng·h/mL, the highest level (Cmax) was 914 ng/mL, the Tmax was determined as 1 h and the MRT inf turned out to be 2.4 h.
Take `COc1cc(N2CC(OC(=O)N3Cc4c(C)c(C)n5ncnc5c4C3)C2)ccn1` [Example 182]: the EC50 in data set [1] (setting [3]) came to 37 nM. In addition, in data set [2], the AUC(0-inf) amounted to 7050 ng·h/mL, the highest level (Cmax) was 1710 ng/mL, the Tmax is 1 h and the MRT inf came to 2.8 h.
With `Cc1c2c(c3ncnn3c1C)CN(C(=O)CC1CN(c3ccnc(OC4CC4)c3)C1)C2` [Example 188], the EC50 in data set [1] (setting [3]) was 20.6 nM. Also, in data set [2], the AUC(0-inf) worked out at 3170 ng·h/mL, the Cmax came to 967 ng/mL, the Tmax was 1 h and the MRT inf stood at 2.6 h.
Taken in the same sequence, the figures for `Cc1c2c(c3ncnn3c1C)CN(C(=O)CC1CN(c3ccc4nc(C(F)F)cn4n3)C1)C2` [Example 189] were 13.3 nM, 3220 ng·h/mL, 1040 ng/mL, 1 h and 2.6 h.
For `Cc1c2c(c3ncnn3c1C)CN(C(=O)OC1CN(c3ccc4nc(C(F)F)cn4n3)C1)C2` [Example 191], the EC50 in data set [1] (setting [3]) stood at 31 nM. Also, in data set [2], the AUC(0-inf) worked out at 16100 ng·h/mL, the Cmax came to 2840 ng/mL, the Tmax came to 2 h and the MRT inf stood at 3.9 h.
The corresponding values for `COc1cc(N2CC(CC(=O)N3Cc4c(C)c(C)n5ncnc5c4C3)C2)ccn1` [Example 236] are 49.1 nM, 6710 ng·h/mL, 1090 ng/mL, 1.5 h and 4.6 h.
With `Cc1c2c(c3ncnn3c1C)CN(C(=O)CC1CN(c3ccc4c(cnn4C)c3)C1)C2` [Example 269], the EC50 in data set [1] (setting [3]) is 87.1 nM. For the same compound, in data set [2], the AUC(0-inf) came to 3640 ng·h/mL, the peak concentration (Cmax) worked out at 1330 ng/mL, the Tmax came to 0.83 h and the MRT inf was 2 h.
Taken in the same sequence, the figures for `Cc1c2c(c3ncnn3c1C)CN(C(=O)CC1CN(c3cnc4c(c3)COC4)C1)C2` [Example 270] were 23.2 nM, 12000 ng·h/mL, 3500 ng/mL, 0.83 h and 2.5 h.
Consider `CCOc1ccc(N2CC(CC(=O)N3Cc4c(C)c(C)n5ncnc5c4C3)C2)cn1` [Example 304, 1-(5,6-Dimethyl-7,9-dihydro-8H-pyrrolo[3,4-c][1,2,4]triazolo[1,5-a]pyridin-8-yl)-2-(1-(6-ethoxypyridin-3-yl)azetidin-3-yl)ethan-1-one], for which the EC50 in data set [1] (setting [3]) was 26.9 nM. Further, in data set [2], the AUC(0-inf) worked out at 4080 ng·h/mL, the peak level (Cmax) was 2380 ng/mL, the Tmax worked out at 0.5 h and the MRT inf worked out at 1.32 h.
`CCn1ncc2cc(N3CC(CC(=O)N4Cc5c(C)c(C)n6ncnc6c5C4)C3)ccc21` [Example 307]: the EC50 in data set [1] is 17.1 nM. Also, in data set [2], the AUC(0-inf) was determined as 5300 ng·h/mL, the Cmax amounted to 2110 ng/mL, the Tmax amounted to 0.75 h and the MRT inf was determined as 2.02 h.
On to `Cc1c2c(n3ncnc3c1Cl)CN(C(=O)CC1CN(c3ncc(C(F)(F)F)cn3)C1)C2` [Example 317, 1-(4-Chloro-5-methyl-6,8-dihydro-7H-pyrrolo[3,4-e][1,24]triazolo[1,5-a]pyridin-7-yl)-2-(1-(5-(trifluoromethyl)pyrimidin-2-yl)azetidin-3-yl)ethan-1-one], for which the EC50 in data set [1] (setting [3]) is 16.9 nM. In data set [2], the AUC(0-inf) stood at 26700 ng·h/mL, the Cmax is 2140 ng/mL, the Tmax stood at 4 h and the MRT inf is 11.2 h.
For `Cc1cc2ncnn2c2c1CN(C(=O)CC1CN(c3ncc(C(F)(F)F)cn3)C1)C2` [Example 331], in data set [1], the EC50 is 101 nM. Further, in data set [2], the AUC(0-inf) worked out at 10700 ng·h/mL, the peak level (Cmax) was 944 ng/mL, the Tmax was determined as 2 h and the MRT inf worked out at 6.8 h.
As for `Cc1c2c(n3ncnc3c1Cl)CN(C(=O)CC1CN(c3ncc(F)cn3)C1)C2` [Example 346, 1-(4-Chloro-5-methyl-6,8-dihydro-7H-pyrrolo[3,4-e][1,2,4]triazolo[1,5-a]pyridin-7-yl)-2-(1-(5-fluoropyrimidin-2-yl)azetidin-3-yl)ethan-1-one], the EC50 in data set [1] (setting [3]) was determined as 32.6 nM. In data set [2], the AUC(0-inf) amounted to 11400 ng·h/mL, the highest level (Cmax) was 1460 ng/mL, the Tmax came out at 1 h and the MRT inf amounted to 5.02 h.
